Assay [1] addresses human Cereblon WT GST-tagged protein (Homo sapiens (Human), UniProt Q96SW2). The assay is described as follows: CRBN binding, HTRF (CEREBLON BINDING kit). On the procedure: The CEREBLON BINDING kits (specification: 10,000 tests; product number: Catalog #64BDCRBNPEH; CISBIO company) was used to determine the CRBN binding ability of the compounds to be tested through a HTRF method (homogeneous time-resolved fluorescence). The specific methods are as follows: • 1. […] Then, 2.5 μL of human Cereblon WT GST-tagged protein solution was added to each well. Finally, 5 μL of the thoroughly mixed Thalidomide-Re reagent and GST Eu antibody working solution were added to each of the aforementioned wells. […] The blank control wells were sequentially added with 2.5 μL of diluent #9 (1×) solution, 2.5 μL of PROTAC binding buffer, and 5 μL of thoroughly mixed Thalidomide-Re reagent and GST Eu antibody working solution. • 4.
The corresponding CRBN binding inhibition rate was calculated using the following method: […]
OD 620 nmcompound is the absorbance value of each well of the compounds of the present disclosure to be tested at an emission wavelength of 620 nm. […] OD 620 nmcontrol is the absorbance value of the blank control well at an emission wavelength of 620 nm. […] OD 620 nmStd0 is the absorbance value of the solvent control well at an emission wavelength of 620 nm.
For orientation: In TR-FRET formats the signal depends on donor and acceptor labels being close together.

The next assay deals with TMD8 cells. The assay is described as follows: Tumor cell proliferation inhibition, CCK-8 kit, 96 h. Particulars: Homo sapiens; TMD8 cells, 96 h, CCK-8; read-out: IC50 for inhibiting the proliferation of tumor cells, TMD8 cell. The class given is cell-based. As for the experimental part: (§1) The tumor cells used herein were cultured in RPMI 1640 medium supplemented with 10% FBS, penicillin to a final concentration of 100 U/mL, and streptomycin to a final concentration of 100 μg/mL, at 37° C. in an incubator with 5% CO2. Prior to experimentation, all cells used were correctly identified by STR profiling, and tested negative for Mycoplasma through routine screenings.
(§2) After 24 h, 100 μL of the inoculated cells were treated with 0.5 μL of the compounds of the present disclosure (including the compounds in Table 1, and Examples compounds) in DMSO at 10 different successively decreasing concentrations (starting at a maximum concentration of 10 μM; 5-fold serial dilutions). […] The growth inhibition of the compounds of the present disclosure on the cells was plotted using Prism Graphpad software, and the IC50 values of the compounds of the present disclosure were calculated.
For orientation: Formazan colour is commonly taken as a measure of viable cells.

Another assay deals with Daudi cells. The assay is described as above. Format: cell-based. As to conditions: Homo sapiens, Daudi cells, CCK-8, read-out: IC50 for inhibiting the proliferation of tumor cells, Daudi cell. On the procedure: as §1, §2
A further assay deals with Mino cells. The assay is described as above. Particulars: Homo sapiens, Mino cells, CCK-8, read-out: IC50 for inhibiting the proliferation of tumor cells, Mino cell. The class given is cell-based. On the procedure:
as §1, §2

In a further assay the test system is MM.1S cells. The description is as above. Format: cell-based. Particulars: Homo sapiens, MM1.S, MM.1S cells, CCK-8, read-out: IC50 for inhibiting the proliferation of tumor cells, MM.1S cell. On the procedure:
as §1, §2

The target in a further assay is IKZF1 protein (Homo sapiens (Human), UniProt Q13422+Q96SW2). The assay is described as follows: Western blot, substrate protein degradation in hPBMC. Particulars: 24 h, Western blot. Format: cell-based. The text has this:
(§3) The supernatant, containing the total cellular protein, was aspirated.
(In general: In western blotting, separated proteins are transferred to a membrane and probed.)

The target in a further assay is IKZF3 protein (Homo sapiens (Human), UniProt Q96SW2+Q9UKT9). Described as above. The class given is cell-based. Particulars: 24 h, Western blot.
Text: as §3

A value given as a limit tells only on which side of the number the result lay.

Sequence of human Cereblon WT GST-tagged protein (Q96SW2 whole entry): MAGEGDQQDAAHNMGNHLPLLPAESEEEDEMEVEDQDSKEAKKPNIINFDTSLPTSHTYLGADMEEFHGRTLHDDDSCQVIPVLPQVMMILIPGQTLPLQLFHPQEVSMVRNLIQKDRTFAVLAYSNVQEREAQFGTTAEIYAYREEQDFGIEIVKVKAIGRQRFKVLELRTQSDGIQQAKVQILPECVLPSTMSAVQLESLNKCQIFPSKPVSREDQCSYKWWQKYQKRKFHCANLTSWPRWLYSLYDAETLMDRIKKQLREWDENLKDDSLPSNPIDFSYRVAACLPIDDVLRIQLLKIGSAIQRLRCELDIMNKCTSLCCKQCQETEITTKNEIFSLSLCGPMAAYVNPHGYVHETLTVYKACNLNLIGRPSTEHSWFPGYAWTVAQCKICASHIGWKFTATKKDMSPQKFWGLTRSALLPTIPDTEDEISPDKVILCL
Sequence of IKZF3 protein (Q9UKT9 whole entry): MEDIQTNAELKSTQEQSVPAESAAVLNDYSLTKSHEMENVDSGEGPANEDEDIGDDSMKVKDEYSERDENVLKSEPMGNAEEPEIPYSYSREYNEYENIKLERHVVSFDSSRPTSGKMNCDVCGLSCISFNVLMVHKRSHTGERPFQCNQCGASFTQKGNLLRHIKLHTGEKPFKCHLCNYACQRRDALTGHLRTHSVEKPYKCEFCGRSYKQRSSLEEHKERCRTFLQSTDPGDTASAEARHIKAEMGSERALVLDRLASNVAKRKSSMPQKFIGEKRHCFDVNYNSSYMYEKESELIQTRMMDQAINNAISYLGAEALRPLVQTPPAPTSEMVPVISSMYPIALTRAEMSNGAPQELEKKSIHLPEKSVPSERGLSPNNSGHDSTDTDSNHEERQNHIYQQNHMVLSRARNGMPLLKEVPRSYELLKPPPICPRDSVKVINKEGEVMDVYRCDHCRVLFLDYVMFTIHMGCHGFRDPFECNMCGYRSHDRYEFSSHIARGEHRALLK
Sequence of IKZF3 protein (Q96SW2 whole entry): as the sequence (Q96SW2 whole entry) above
Sequence of IKZF3 protein (Q16531 whole entry partner): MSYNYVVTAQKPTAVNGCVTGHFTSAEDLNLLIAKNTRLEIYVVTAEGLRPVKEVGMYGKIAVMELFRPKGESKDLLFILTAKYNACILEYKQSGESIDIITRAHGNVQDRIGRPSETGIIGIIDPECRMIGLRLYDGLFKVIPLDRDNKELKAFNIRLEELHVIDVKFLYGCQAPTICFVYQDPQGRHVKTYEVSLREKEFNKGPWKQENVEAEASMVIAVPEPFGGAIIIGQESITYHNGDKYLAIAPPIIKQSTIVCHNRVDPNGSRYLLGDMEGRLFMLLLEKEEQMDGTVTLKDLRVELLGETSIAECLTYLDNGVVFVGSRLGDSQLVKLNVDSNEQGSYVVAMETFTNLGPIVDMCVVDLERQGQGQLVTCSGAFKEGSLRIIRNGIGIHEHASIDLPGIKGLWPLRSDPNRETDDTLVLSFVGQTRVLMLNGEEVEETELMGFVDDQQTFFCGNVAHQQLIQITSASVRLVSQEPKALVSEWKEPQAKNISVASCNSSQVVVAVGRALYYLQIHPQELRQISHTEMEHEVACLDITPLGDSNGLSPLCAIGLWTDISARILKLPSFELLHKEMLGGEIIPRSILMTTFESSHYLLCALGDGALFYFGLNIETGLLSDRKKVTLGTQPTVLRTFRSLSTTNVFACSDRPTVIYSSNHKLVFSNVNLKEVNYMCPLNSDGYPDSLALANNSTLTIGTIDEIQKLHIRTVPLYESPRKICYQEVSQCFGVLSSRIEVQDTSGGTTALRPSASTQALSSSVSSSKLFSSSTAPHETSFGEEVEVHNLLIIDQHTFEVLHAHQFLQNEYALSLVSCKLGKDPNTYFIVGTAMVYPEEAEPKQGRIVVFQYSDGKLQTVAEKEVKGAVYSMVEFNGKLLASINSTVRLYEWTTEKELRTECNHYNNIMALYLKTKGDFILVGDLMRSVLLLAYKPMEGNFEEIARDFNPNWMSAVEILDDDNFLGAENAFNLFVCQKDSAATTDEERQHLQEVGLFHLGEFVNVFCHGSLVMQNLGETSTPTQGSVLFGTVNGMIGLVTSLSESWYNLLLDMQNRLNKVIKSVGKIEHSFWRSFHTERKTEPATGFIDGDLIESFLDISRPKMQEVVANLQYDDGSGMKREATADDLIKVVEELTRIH
Sequence of IKZF1 protein (Q13422 whole entry): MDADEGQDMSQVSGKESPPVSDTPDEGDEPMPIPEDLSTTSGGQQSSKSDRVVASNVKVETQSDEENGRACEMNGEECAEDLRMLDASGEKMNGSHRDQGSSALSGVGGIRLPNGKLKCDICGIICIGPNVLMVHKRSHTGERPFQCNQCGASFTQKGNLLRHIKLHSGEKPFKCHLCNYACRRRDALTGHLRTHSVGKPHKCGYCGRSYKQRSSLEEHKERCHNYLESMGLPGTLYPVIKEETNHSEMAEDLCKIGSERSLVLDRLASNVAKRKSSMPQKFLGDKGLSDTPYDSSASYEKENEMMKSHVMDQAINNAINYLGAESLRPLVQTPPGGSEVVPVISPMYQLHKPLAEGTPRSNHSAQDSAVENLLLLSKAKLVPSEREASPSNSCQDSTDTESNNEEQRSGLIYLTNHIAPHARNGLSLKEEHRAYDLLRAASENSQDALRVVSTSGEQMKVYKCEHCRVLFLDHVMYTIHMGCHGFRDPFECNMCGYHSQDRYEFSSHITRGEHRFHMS
Sequence of IKZF1 protein (Q96SW2 whole entry): as the sequence (Q96SW2 whole entry) above
Sequence of IKZF1 protein (Q16531 whole entry partner): as the sequence (Q16531 whole entry partner) above

As to `O=C1CCC(N2Cc3c(SCc4ccc(CN5CCC(F)(F)CC5)cc4)cc(F)cc3C2=O)C(=O)N1` (centres unmarked) [GT-04024, 3-(4-((4-((4,4-difluoropiperidin-1-yl)methyl)benzyl)thio)-6-fluoro-1-oxoisoindolin-2-yl)piperidine-2,6-dione], the IC50 in assay [1] was less than 600 nM; in the assay with TMD8 cells, 5 to 10 nM.

In the case of `O=C1CCC(N2Cc3c(SCc4ccc(CN5CCCCC5)cc4)cc(F)cc3C2=O)C(=O)N1` (centres unmarked) [GT-04117, 3-(6-fluoro-1-oxo-4-((4-(piperidin-1-ylmethyl)benzyl)thio)isoindolin-2-yl)piperidine-2,6-dione], the IC50 in assay [1] is less than 600 nM; in the assay with Daudi cells it was 500 to 1000 nM; in the assay on Mino cells it was less than 5 nM; with TMD8 cells it was 10 to 50 nM.

For the compound `O=C1CCC(N2Cc3c(SCCCCNC45CC6CC(CC(C6)C4)C5)cc(F)cc3C2=O)C(=O)N1` (centres unmarked) [GT-04243, 3-(4-((4-((adamantan-1-yl)amino)butyl)thio)-6-fluoro-1-oxoisoindolin-2-yl)piperidine-2,6-dione], the IC50 in assay [1] is less than 600 nM.

Turning to `O=C1CCC(N2Cc3c(SCCCCCCCNC45CC6CC(CC(C6)C4)C5)cc(F)cc3C2=O)C(=O)N1` (centres unmarked) [GT-04333, 3-(4-((7-((adamantan-1-yl)amino)heptyl)thio)-6-fluoro-1-oxoisoindolin-2-yl)piperidine-2,6-dione], the IC50 in assay [1] is less than 600 nM.

On to `O=C1CCC(N2Cc3c(SCCCCCCCCN4CCOCC4)cc(F)cc3C2=O)C(=O)N1` (centres unmarked) [GT-05341, 3-(6-fluoro-4-((8-morpholinooctyl)thio)-1-oxoisoindolin-2-yl)piperidine-2,6-dione], for which the IC50 in assay [1] is less than 600 nM.

In assay [1], `CCN(CC)CCCCCCCCSc1cc(F)cc2c1CN(C1CCC(=O)NC1=O)C2=O` (centres unmarked) [GT-05342, 3-(4-((8-(diethylamino)octyl)thio)-6-fluoro-1-oxoisoindolin-2-yl)piperidine-2,6-dione] gave an IC50 of less than 600 nM.

`O=C1CCC(N2Cc3c(SCCCCCCC(=O)N4CCCCC4)cc(F)cc3C2=O)C(=O)N1` (centres unmarked) [GT-05343, 3-(6-fluoro-1-oxo-4-((7-oxo-7-(piperidin-1-yl)heptyl)thio)isoindolin-2-yl)piperidine-2,6-dione]: the IC50 in assay [1] is less than 600 nM; in the assay with Mino cells it was 10 to 50 nM.

On to `O=C1CCC(N2Cc3c(SCCCCCCCN4CCCCC4)cc(F)cc3C2=O)C(=O)N1` (centres unmarked) [GT-05344, 3-(6-fluoro-1-oxo-4-((7-(piperidin-1-yl)heptyl)thio)isoindolin-2-yl)piperidine-2,6-dione], for which the IC50 in assay [1] is less than 600 nM.

`O=C1CCC(N2Cc3c(SCCCCCCC(=O)N4CCC(F)(F)CC4)cc(F)cc3C2=O)C(=O)N1` (centres unmarked) [GT-05407, 3-(4-((7-(4,4-difluoropiperidin-1-yl)-7-oxoheptyl)thio)-6-fluoro-1-oxoisoindolin-2-yl)piperidine-2,6-dione]: the IC50 was less than 600 nM in assay [1], 10 to 50 nM in the assay on Mino cells and 50 to 100 nM in the assay on MM.1S cells.

As to `O=C1CCC(N2Cc3c(SCCCCCCCN4CCC(F)(F)CC4)cc(F)cc3C2=O)C(=O)N1` (centres unmarked) [GT-05408, 3-(4-((7-(4,4-difluoropiperidin-1-yl)heptyl)thio)-6-fluoro-1-oxoisoindolin-2-yl)piperidine-2,6-dione], the IC50 in assay [1] is less than 600 nM; with Mino cells it was 50 to 100 nM.

Consider `O=C1CCC(N2Cc3c(SCCCCCCCNC4CCCCC4)cc(F)cc3C2=O)C(=O)N1` (centres unmarked) [GT-05409, 3-(4-((7-(cyclohexylamino)heptyl)thio)-6-fluoro-1-oxoisoindolin-2-yl)piperidine-2,6-dione], for which the IC50 was less than 600 nM in assay [1] and less than 5 nM in the assay on Mino cells.

Turning to `CN(CCCCCCCSc1cc(F)cc2c1CN(C1CCC(=O)NC1=O)C2=O)C12CC3CC(CC(C3)C1)C2` (centres unmarked) [GT-05421, 3-(4-((7-((adamantan-1-yl)(methyl)amino)heptyl)thio)-6-fluoro-1-oxoisoindolin-2-yl)piperidine-2,6-dione], the IC50 was less than 600 nM in assay [1], less than 5 nM in the assay with Mino cells and less than 5 nM in the assay with MM.1S cells.

`O=C1CCC(N2Cc3c(SCCCCCCCNC4CC5(CCC5)C4)cc(F)cc3C2=O)C(=O)N1` (centres unmarked) [GT-05422, 3-(6-fluoro-1-oxo-4-((7-(spiro[3.3]heptan-2-ylamino)heptyl)thio)isoindolin-2-yl)piperidine-2,6-dione]: the IC50 in assay [1] was less than 600 nM; in the assay on Mino cells, less than 5 nM; with MM.1S cells, less than 5 nM.

`O=C1CCC(N2Cc3c(SCc4ccc(CNC56CC7CC(CC(C7)C5)C6)cc4)cc(F)cc3C2=O)C(=O)N1` (centres unmarked) [GT-05423, 3-(4-((4-(((adamantan-1-yl)amino)methyl)benzyl)thio)-6-fluoro-1-oxoisoindolin-2-yl)piperidine-2,6-dione]: the IC50 was less than 600 nM in assay [1], less than 5 nM in the assay with Mino cells and less than 5 nM in the assay on MM.1S cells.

On to `CC1(C)[C@@H]2CC[C@@]1(C)[C@@H](NCc1ccc(CSc3cc(F)cc4c3CN(C3CCC(=O)NC3=O)C4=O)cc1)C2` (stereo partly drawn) [GT-05424, 3-(6-fluoro-1-oxo-4-((4-((((1R,2S,4R)-1,7,7-trimethylbicyclo[2.2.1]heptan-2-yl)amino)methyl)benzyl)thio)isoindolin-2-yl)piperidine-2,6-dione], for which the IC50 is less than 600 nM in assay [1], 100 to 500 nM with Daudi cells, less than 5 nM in the assay on Mino cells and 10 to 50 nM with MM.1S cells.

`CC1(C)[C@@H]2CC[C@@]1(C)[C@@H](NCCCCCCCSc1cc(F)cc3c1CN(C1CCC(=O)NC1=O)C3=O)C2` (stereo partly drawn) [GT-05425, 3-(6-fluoro-1-oxo-4-((7-(((1R,2S,4R)-1,7,7-trimethylbicyclo[2.2.1]heptan-2-yl)amino)heptyl)thio)isoindolin-2-yl)piperidine-2,6-dione]: the IC50 in assay [1] was less than 600 nM; in the assay on Daudi cells it was 500 to 1000 nM; in the assay on Mino cells, less than 5 nM; with MM.1S cells it was 50 to 100 nM.

As for `O=C1CCC(N2Cc3c(SCc4ccc(CCNC56CC7CC(CC(C7)C5)C6)cc4)cc(F)cc3C2=O)C(=O)N1` (centres unmarked) [GT-05431, 3-(4-((4-(2-((adamantan-1-yl)amino)ethyl)benzyl)thio)-6-fluoro-1-oxoisoindolin-2-yl)piperidine-2,6-dione], the IC50 in assay [1] was less than 600 nM; in the assay with Daudi cells it was less than 5 nM; in the assay on Mino cells, less than 5 nM; with MM.1S cells, less than 5 nM.

For the compound `O=C1CCC(N2Cc3c(SCc4ccc(CN5CCCCC5)c(F)c4)cc(F)cc3C2=O)C(=O)N1` (centres unmarked) [GT-05443, 3-(6-fluoro-4-((3-fluoro-4-(piperidin-1-ylmethyl)benzyl)thio)-1-oxoisoindolin-2-yl)piperidine-2,6-dione], the IC50 was less than 600 nM in assay [1], 100 to 500 nM with Daudi cells, less than 5 nM with Mino cells and 10 to 50 nM in the assay on MM.1S cells. For the same compound, the “concentration at which IKZF1 protein is significantly degraded” value on IKZF1 protein is “below 0.1 nM”. Also, the “concentration at which IKZF3 protein is significantly degraded” value on IKZF3 protein is listed as “below 10 nM”.

Consider `O=C1CCC(N2Cc3c(SCc4ccc(CN5CCC(F)(F)CC5)c(F)c4)cc(F)cc3C2=O)C(=O)N1` (centres unmarked) [GT-05444, 3-(4-((4-((4,4-difluoropiperidin-1-yl)methyl)-3-fluorobenzyl)thio)-6-fluoro-1-oxoisoindolin-2-yl)piperidine-2,6-dione], for which the IC50 in assay [1] was less than 600 nM; in the assay with Daudi cells, 10 to 50 nM; in the assay on Mino cells, less than 5 nM; in the assay with MM.1S cells it was less than 5 nM.

Regarding `O=C1CCC(N2Cc3c(CCCCCCCCNC45CC6CC(CC(C6)C4)C5)cc(F)cc3C2=O)C(=O)N1` (centres unmarked) [GT-05617, 3-(4-(8-((adamantan-1-yl)amino)octyl)-6-fluoro-1-oxoisoindolin-2-yl)piperidine-2,6-dione], the results for the IC50 (in assay [1]; in the assay on Mino cells) were less than 600 nM and 50 to 100 nM, respectively.

The record behind these values is patent publication US20250268906A1, “MOLECULAR GLUE COMPOUND BASED ON CEREBLON PROTEIN DESIGN AND USE THEREOF” (GLUETACS THERAPEUTICS (SHANGHAI) CO., LTD., priority 2022, published 2025).
